Reference: patent US9428460B2, “N-[4-(quinolin-4-yloxy)cyclohexyl(methyl)](hetero)arylcarboxamides as androgen receptor antagonists, production and use thereof as medicinal products” (BAYER PHARMA AKTIENGESELLSCHAFT, priority 2012, dated 2016)

How the values were obtained:
[1] = molecular target: human androgen receptor (full length, wild-type form) (Homo sapiens (Human), UniProt P10275); test: Transactivation assay for the wild-type androgen receptor (PC-3 cells, MMTV-luciferase reporter); format: cell-based; details: in the presence of R1881, 16 hours
Source text: For determining the androgen receptor-dependent transcription, a cellular assay system was used, consisting of PC-3 cells (Kaighn et al., Invest. Urol. 17: 16-23, 1979), which express the human androgen receptor stably and recombinantly (full length, wild-type form, see Swiss-Prot Acc. No. P10275, Entry Version 159, Sequence Version 2). In addition, these PC3 cells contain a stably integrated reporter gene plasmid, which is based on the commercially available plasmid pGL4.14 (#E6691, Promega Corporation, Madison, Wis., USA) and contains the luciferase gene from the American firefly (Photinus pyralis) under the control of the MMTV promoter (Cato et al., EMBO J. 6: 363-368, 1987). These cells were propagated in routine cell culture at 37° C. and 5% CO2 in a medium containing 90% RPMI 1640 (Invitrogen GmbH, Darmstadt, Germany), 100 U penicillin, 100 μg/ml streptomycin (Invitrogen), 4 mM L-glutamine (Invitrogen), 10% fetal calf serum (FCS Serum Gold, PAA Laboratories GmbH, Cölbe, Germany), 600 μg/ml Geneticin (G418-sulphate, Invitrogen) and 10 μg/ml puromycin (Sigma Aldrich GmbH, Germany).
For carrying out the transactivation assays, approx. 1000 cells per well were plated out in a 384-well cell culture plate in a medium that contained activated charcoal-treated calf serum (FCS Serum Gold, PAA Laboratories) at a concentration of 5% (v/v). The test substances were added in a concentration series from 5.12×10^−12 to 1×10^−5 M in the presence of […] R1881 (methyltrienolone). The test plates were incubated overnight at 37° C. and 5% CO2. After 16 hours, 15 μl of Steady Glo Lysis and Detection reagent (E2550, Promega Corporation, Madison, Wis., USA) was added per well and the luminescence was read in a Topcount Luminometer (PerkinElmer, Waltham, Mass., USA) for 4 seconds per well. The luminescence values obtained were normalized, wherein 100% corresponded to the effect of the unstimulated control (without R1881), and 0% corresponded to the effect of the stimulated control (R1881 plus DMSO instead of test substance). The IC50 value was determined by regression analysis based on a four-parameter equation (minimum, maximum, IC50, Hill coefficient; Y=Max+(Min−Max)/(1+(X/IC50)^Hill)).

[2] = test system: human uterine leiomyoma xenografts; test: Growth of human xenografts from leiomyoma tissue in immunodeficient mice; format: in vivo, mouse
Protocol: The growth-inhibiting action of inhibitors of the androgen receptor was tested in a xenograft animal model with subcutaneously transplanted tissue fragments from human leiomyomas.
Human uterine leiomyoma tissue was derived from surgery, in which, based on the diagnosis, either a hysterectomy or a myomectomy was carried out. The uterine leiomyomas (UL) were then prepared free either from the removed uterus or by myomectomy in situ; in the last-mentioned method, the myomas were removed whole or by morcellation from the abdominal cavity.
The prepared myomas were then immediately put in a suitable sterile buffer (Vitron V7 Buffer (U.S. Pat. No. 5,328,821) or Viaspan organ transplant buffer) at 4° C. for further transport. Then, on a sterile bench with constant moistening, the UL tissue was cut into small blocks with 2×2×2 mm or 2×4×4 mm edge lengths, and the pieces of tissue were stored in a cell culture dish in PBS at room temperature until transplantation (M Fritsch et al. 2010, ISGE abstract & presentation).
Immunodeficient mice (ICR SCID, CB17 SCID, ICR-Hrhr SCID or SCID beige mice) were ovariectomized at the age of 6-8 weeks (OVX). At the earliest one week after OVX, pellets releasing 17β-estradiol (E2, 0.05 mg/90 d, Innovative Research of America, catalogue number NE-121) and progesterone (P, 25 mg/60 d, Innovative Research of America, catalogue number SP-131) (Innovative Research of America, Sarasota, Fla./USA) were transplanted into the neck region of the animals. Alternatively, the animals can be given replacement therapy with other implants or methods that ensure continuous release of the hormones 17β-estradiol and progesterone. […]
UL tissue in situ was as a rule characterized by an excessive synthesis and accumulation of proteins of the extracellular matrix, and by increased cell proliferation. […] If specific mechanisms of action of the test substances were known or presumed, in addition the cell proliferation and/or the proportion of the extracellular matrix were determined by histological staining. […]

Chain of human androgen receptor (full length, wild-type form) (P10275 whole entry): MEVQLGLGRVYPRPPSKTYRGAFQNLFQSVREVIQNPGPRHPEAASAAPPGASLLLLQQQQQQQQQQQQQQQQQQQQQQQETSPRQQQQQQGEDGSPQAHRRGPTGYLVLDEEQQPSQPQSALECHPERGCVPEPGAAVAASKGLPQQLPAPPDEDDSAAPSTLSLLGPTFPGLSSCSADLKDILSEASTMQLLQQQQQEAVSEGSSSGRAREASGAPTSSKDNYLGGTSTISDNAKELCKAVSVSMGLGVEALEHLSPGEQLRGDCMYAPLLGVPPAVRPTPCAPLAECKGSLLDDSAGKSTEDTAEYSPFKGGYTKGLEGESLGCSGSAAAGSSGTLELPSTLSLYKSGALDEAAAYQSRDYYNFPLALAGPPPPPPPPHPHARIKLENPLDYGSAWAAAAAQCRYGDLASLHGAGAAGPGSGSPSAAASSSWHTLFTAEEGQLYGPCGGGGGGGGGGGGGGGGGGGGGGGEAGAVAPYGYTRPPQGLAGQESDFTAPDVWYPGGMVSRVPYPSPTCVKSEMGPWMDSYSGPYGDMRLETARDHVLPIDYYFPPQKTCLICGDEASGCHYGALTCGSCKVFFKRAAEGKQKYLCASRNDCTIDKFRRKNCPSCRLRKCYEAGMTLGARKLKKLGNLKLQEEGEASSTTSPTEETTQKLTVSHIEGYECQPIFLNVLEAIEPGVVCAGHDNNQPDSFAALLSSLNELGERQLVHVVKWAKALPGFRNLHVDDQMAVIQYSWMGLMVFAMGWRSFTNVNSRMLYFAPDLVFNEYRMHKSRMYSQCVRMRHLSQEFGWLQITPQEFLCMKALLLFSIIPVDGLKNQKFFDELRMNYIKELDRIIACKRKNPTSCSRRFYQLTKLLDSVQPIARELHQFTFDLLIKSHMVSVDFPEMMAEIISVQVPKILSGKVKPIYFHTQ

IC50 [1]: 52 nM
SMILES: N#Cc1cccc2c(O[C@H]3CC[C@H](NC(=O)c4cccc(F)c4)CC3)ccnc12 [Example 23, N-{trans-4-[(8-cyanoquinolin-4-yl)oxy]cyclohexyl}-3-fluorobenzamide]
inhibition of the growth of uterine leiomyoma xenografts ([2]; 70 mg/kg/d, in 3 out of 4 independent experiments with tissue from different donors): significant inhibition | average inhibition of the normalized xenograft growth over the transplantation weight on day 0 ([2]; dose of 25 mg/kg/d): −24% | average inhibition of the normalized xenograft growth over the transplantation weight on day 0 ([2]; dose of 70 mg/kg/d): −59%
